What was measured:
sigma σ receptor = assay: Binding assay σ (non-selective), [3H]DTG, rat cerebral cortex; settings: percent inhibition of control specific binding; compounds tested at 1×10^−6 M
Outline: (§1)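 Radioligand displacement at 1×10^−6 M compound, with detection by scintillation counting. Nonspecific signal is measured using an excess of non-radioactive ligand.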

[1] = target: T1, serotoninergic 5-HT7 receptor (Homo sapiens, UniProt P34969); assay: Binding assay 5-HT7 (h), [3H]LSD, CHO cells; design: expressed in transfected cells; host or cells: CHO cells; settings: read-out: 5-HT7
Outline: as §1

[2] = target: T1, serotoninergic 5-HT7 receptor; assay: Cellular functional assay, serotoninergic 5-HT7 receptor (agonism/antagonism); type: cell-based; settings: for activation at 1 µM: agonist effect, percent of control specific agonist response, compounds tested at 1×10^−6M, read-out: 5-HT7-ag [%]; for inhibition at 1 µM: read-out: 5-HT7-antag. [%]
Description: (§2) The compounds were tested at the concentration of 1×10^−6M.
(§3) In the Tables ag refers to agonism, and antag to antagonism).

muscarinic M3 receptor = target: T2, muscarinic M3 receptor (Homo sapiens, UniProt P20309); assay: Binding assay M3 (h), [3H]4-DAMP, CHO cells; settings: read-out: M3 [%]
T2 construct: expressed in transfected cells; host or cells: CHO cells
Outline: as §1

[3] = target: T3, serotoninergic 5-HT2A receptor (Homo sapiens, UniProt P28223); assay: Binding assay 5-HT2A (h), [3H]ketanserin, HEK-293 cells; design: expressed in transfected cells; host or cells: HEK-293 cells; settings: read-out: 5-HT2A
Outline: as §1

[4] = target: T4, serotoninergic 5-HT1A receptor (Homo sapiens, UniProt P08908); assay: Cellular functional assay, serotoninergic 5-HT1A receptor (agonism/antagonism); type: cell-based; settings: for inhibition at 1 µM: CHO, read-out: 5-HT1A-antag. [%]; for activation at 1 µM: agonist effect, percent of control specific agonist response (100 nM 8-OH-DPAT for control), 1×10^−6 M, 5-HT1A (h), CHO cells, read-out: 5-HT1A-ag [%]
T4 sequence (P08908 1-422): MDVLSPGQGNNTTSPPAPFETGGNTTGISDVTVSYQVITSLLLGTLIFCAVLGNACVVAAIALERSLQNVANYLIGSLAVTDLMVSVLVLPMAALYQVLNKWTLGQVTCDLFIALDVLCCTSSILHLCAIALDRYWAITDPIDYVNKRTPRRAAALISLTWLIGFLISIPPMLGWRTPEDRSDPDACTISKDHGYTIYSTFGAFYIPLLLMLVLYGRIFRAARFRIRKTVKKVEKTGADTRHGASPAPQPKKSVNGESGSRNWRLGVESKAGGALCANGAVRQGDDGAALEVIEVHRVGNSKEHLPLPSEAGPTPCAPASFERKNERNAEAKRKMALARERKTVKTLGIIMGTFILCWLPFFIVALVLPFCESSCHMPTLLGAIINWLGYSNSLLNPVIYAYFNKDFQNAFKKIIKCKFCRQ
Description: as §2, §3

[5] = target: T3, serotoninergic 5-HT2A receptor; assay: Cellular functional assay, serotoninergic 5-HT2A receptor (agonism/antagonism); type: cell-based; settings: for activation at 1 µM: read-out: 5-HT2A -ag [%]; for inhibition at 1 µM: read-out: 5-HT2A -antag [%]
Outline: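 Human receptors tested in cell-based functional format for both agonist and antagonist modes. Single compound concentration of 1×10^−6M.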

dopaminergic D2 receptor = dopaminergic D2 receptor (Homo sapiens, UniProt P14416); assay: Binding assay D2S (h), [3H]methyl-spiperone, HEK-293 cells; design: expressed in transfected cells; host or cells: HEK-293 cells; settings: read-out: D2 [%]
Outline: as §1

[6] = target: T5, serotoninergic receptor 5-HT2C (Homo sapiens, UniProt P28335); assay: Binding assay 5-HT2C (h), [3H]mesulergine, HEK-293 cells; settings: read-out: 5-HT2C [%]
T5 construct: expressed in transfected cells; host or cells: HEK-293 cells
T5 sequence (P28335 33-458): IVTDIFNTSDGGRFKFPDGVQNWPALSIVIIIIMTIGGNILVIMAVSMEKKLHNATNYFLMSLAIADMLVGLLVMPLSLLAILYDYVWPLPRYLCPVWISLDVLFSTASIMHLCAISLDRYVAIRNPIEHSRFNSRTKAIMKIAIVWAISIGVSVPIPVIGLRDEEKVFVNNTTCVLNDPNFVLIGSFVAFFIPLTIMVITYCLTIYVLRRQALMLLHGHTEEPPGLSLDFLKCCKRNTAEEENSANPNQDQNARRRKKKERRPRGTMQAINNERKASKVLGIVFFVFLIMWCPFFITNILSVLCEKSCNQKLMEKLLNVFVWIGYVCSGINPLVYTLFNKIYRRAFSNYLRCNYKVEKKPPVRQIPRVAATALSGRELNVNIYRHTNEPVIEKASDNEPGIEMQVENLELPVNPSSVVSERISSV
Outline: as §1

adrenergic α1 receptor = assay: Binding assay α1 (non-selective), [3H]prazosin, rat cerebral cortex; settings: percent inhibition of control specific binding; compounds tested at 1×10^−6 M
Outline: as §1

[7] = target: T6, serotoninergic 5-HT6 receptor (Homo sapiens, UniProt P50406); assay: Binding assay 5-HT6 (h), [3H]LSD, CHO cells; design: expressed in transfected cells; host or cells: CHO cells; settings: read-out: 5-HT6
Outline: as §1

[8] = target: T6, serotoninergic 5-HT6 receptor; assay: Cellular functional assay, serotoninergic 5-HT6 receptor (agonism/antagonism); type: cell-based; settings: for activation at 1 µM: agonist effect, percent of control specific agonist response, compounds tested at 1×10^−6M, read-out: 5-HT6-ag [%]; for inhibition at 1 µM: read-out: 5-HT6-antag. [%]
Description: as §2, §3

T6 sequence (P50406 whole entry): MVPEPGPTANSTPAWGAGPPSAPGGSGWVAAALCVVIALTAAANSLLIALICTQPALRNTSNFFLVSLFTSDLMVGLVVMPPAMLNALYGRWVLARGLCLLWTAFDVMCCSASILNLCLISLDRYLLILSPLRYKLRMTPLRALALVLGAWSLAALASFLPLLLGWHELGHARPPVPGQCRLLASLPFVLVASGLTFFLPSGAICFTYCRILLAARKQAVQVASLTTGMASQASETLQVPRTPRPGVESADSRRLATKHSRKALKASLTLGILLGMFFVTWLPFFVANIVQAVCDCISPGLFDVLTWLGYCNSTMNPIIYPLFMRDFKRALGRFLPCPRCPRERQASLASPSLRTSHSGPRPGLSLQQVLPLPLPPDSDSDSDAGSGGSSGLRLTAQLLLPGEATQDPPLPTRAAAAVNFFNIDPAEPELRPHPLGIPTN
T1 sequence (P34969 whole entry): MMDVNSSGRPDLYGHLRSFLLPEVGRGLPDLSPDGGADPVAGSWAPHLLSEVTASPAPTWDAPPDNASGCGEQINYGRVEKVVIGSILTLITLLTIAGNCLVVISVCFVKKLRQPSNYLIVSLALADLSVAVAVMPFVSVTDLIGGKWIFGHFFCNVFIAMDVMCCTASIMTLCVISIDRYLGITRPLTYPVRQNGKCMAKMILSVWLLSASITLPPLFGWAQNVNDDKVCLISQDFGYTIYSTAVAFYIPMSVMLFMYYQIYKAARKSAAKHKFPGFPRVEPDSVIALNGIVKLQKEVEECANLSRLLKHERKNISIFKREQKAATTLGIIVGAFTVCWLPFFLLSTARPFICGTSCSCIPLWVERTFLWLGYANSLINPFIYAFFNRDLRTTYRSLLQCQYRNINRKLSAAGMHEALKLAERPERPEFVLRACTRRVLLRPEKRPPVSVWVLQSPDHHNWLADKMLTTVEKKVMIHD
T3 sequence (P28223 whole entry): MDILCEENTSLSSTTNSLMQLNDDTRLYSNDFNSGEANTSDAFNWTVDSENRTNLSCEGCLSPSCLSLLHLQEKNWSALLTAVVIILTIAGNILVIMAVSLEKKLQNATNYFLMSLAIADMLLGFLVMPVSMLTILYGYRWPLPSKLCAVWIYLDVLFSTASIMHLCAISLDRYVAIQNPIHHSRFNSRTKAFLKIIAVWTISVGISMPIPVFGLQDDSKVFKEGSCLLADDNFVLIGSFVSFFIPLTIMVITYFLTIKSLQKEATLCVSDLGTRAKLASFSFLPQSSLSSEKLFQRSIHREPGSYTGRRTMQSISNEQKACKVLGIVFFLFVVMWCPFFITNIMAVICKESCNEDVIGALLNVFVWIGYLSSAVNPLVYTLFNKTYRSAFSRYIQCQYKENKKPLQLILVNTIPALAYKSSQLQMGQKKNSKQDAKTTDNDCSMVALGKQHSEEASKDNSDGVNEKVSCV
T2 sequence (P20309 whole entry): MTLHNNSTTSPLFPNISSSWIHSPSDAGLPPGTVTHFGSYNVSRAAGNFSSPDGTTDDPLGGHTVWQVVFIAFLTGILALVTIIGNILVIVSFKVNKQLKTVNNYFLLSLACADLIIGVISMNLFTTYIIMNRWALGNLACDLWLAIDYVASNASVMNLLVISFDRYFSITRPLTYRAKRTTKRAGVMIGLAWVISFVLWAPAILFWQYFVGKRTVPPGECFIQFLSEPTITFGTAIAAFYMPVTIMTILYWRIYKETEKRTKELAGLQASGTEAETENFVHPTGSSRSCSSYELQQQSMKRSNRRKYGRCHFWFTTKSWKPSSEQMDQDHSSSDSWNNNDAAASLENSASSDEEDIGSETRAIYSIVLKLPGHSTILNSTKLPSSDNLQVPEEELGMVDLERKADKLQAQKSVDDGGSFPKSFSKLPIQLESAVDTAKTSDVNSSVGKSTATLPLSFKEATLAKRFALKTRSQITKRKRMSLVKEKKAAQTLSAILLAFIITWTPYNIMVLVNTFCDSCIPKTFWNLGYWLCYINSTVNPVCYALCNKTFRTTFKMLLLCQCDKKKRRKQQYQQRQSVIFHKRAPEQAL
dopaminergic D2 receptor, sequence (P14416 1-414 isoform P14416-2): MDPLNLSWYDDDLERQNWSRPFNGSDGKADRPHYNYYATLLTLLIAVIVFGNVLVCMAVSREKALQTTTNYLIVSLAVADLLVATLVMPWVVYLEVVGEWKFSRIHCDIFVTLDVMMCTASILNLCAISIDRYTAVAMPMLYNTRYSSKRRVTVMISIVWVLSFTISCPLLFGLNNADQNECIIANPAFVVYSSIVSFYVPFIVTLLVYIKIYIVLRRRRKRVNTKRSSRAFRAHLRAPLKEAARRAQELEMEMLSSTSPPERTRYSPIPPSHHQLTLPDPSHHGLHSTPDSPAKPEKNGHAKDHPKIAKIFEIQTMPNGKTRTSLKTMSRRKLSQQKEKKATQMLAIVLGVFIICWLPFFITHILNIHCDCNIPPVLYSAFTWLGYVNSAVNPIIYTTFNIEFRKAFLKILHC

## O=S(=O)(NCCCCN1CCN(c2nsc3ccccc23)CC1)c1csc2ccccc12 [Compound 240, N-[4-[4-(1,2-Benzothiazol-3-yl)piperazin-1-yl]butyl]benzothiophene-3-sulphonamide]
Sigma σ receptor
  σ [%]: 44%
[1]
  inhibition at 1 µM: 97%
[2]
  activation at 1 µM: -2%
  inhibition at 1 µM: 98%
Muscarinic M3 receptor
  inhibition at 1 µM: 15%
[3]
  inhibition at 1 µM: 101%
[4]
  inhibition at 1 µM: 50%
  activation at 1 µM: 9%
[5]
  activation at 1 µM: -3%
  inhibition at 1 µM: 93%
Dopaminergic D2 receptor
  inhibition at 1 µM: 101%
[6]
  inhibition at 1 µM: 78%
Adrenergic α1 receptor
  α1 [%]: 96%
[7]
  inhibition at 1 µM: 98%
[8]
  activation at 1 µM: -2%
  inhibition at 1 µM: 71%

## O=S(=O)(NCCCCN1CCN(c2nsc3ccccc23)CC1)c1cc2ccc(Cl)cc2s1 [Compound 241, N-[4-[4-(1,2-Benzothiazol-3-yl)piperazin-1-yl]butyl]-6-chlorobenzothiophene-2-sulphonamide]
Sigma σ receptor
  σ [%]: 51%
[1]
  inhibition at 1 µM: 99%
[2]
  activation at 1 µM: -2%
  inhibition at 1 µM: 83%
Muscarinic M3 receptor
  inhibition at 1 µM: 4%
[3]
  inhibition at 1 µM: 101%
[4]
  inhibition at 1 µM: 42%
  activation at 1 µM: 5%
[5]
  activation at 1 µM: -2%
  inhibition at 1 µM: 99%
Dopaminergic D2 receptor
  inhibition at 1 µM: 100%
[6]
  inhibition at 1 µM: 96%
Adrenergic α1 receptor
  α1 [%]: 93%
[7]
  inhibition at 1 µM: 96%
[8]
  activation at 1 µM: 0%
  inhibition at 1 µM: 69%

Reference: US8822517B2, “Arylosulfonamides for the treatment of CNS diseases” (Adamed SP. Z O.O., priority 2010, dated 2014)
